Experiments:
IL-8 = assay: Spontaneous IL-8 release from synovial cells of RA patients; type: cell-based; conditions: Homo sapiens, Synovial cell, freshly isolated synovial cells from RA patients, 16 hours
Description: Cytokine production in synovial cells obtained from rheumatoid arthritis patients undergoing knee replacement surgery, was measured as per the method described in reference, Lancet, 1989, 29, 244-247, the disclosure of which is incorporated herein by reference for the teaching of the assay. The synovial membrane tissue was digested by incubating at 37° C. for 3 hours in an atmosphere of 5% CO2, in Roswell Park Memorial Institute (RPMI) medium containing penicillin-G (100 U/mL), streptomycin (100 μg/mL), amphotericin B (50 ng/mL) (GIBCO), 1.33 mg/mL collagenase Type I (Worthington Biochemical Corporation, New Jersey, USA), 0.5 μg/mL DNAse Type I (SIGMA) and 8.33 U/mL heparin (Biological E. Limited, India). The digested tissue was then filtered through a membrane (mesh size 70 micron) (SIGMA), the cells were washed 3 times and suspended in complete medium (RPMI supplemented with 5% FCS and 5% human serum). The cell concentration was adjusted to 1×10^6 cells/mL. The viability as determined by trypan blue dye exclusion was uniform Ly≧98%. The cell suspension (100 μL) was added to the wells of a 96-well culture plate. Following cell plating, 100 μL of the culture medium and 1 μL of various concentrations of the compound of example 3 (final concentration 0.001, 0.003, 0.01, 0.03, 0.1, 0.3, 1 and 3 μM) dissolved in DMSO (dimethylsulfoxide, Sigma, Mo., USA) were added to the cells. […]

VCAM-1 = assay: TNF-α induced cell surface expression of VCAM-1 on HUVECs; type: cell-based; conditions: Homo sapiens, HUVEC; TNF-α (1 ng/mL) stimulated HUVECs, 6 hours, n=2
Description: The assay was designed as in reference, Transplantation, 1997, 63(5), 759-764, the disclosure of which is incorporated herein by reference for the teaching of the assay.
Human umbilical vein endothelial cells (HUVECs) were obtained from Cascade Biologics (Oregon-USA). Cells were cultured in M-200 medium (Cascade Biologics) supplemented with low serum growth supplements (LSGS) (Cascade Biologics), penicillin-G (100 U/mL), streptomycin (100 μg/mL) and amphotericin B (50 ng/mL) (GIBCO). […] After TNF-α stimulation (1 ng/mL) (R&D Systems (Minneapolis, Minn.)) for 4 hours at 37° C. in an atmosphere of 5% CO2, supernatants were harvested and assayed for the expression of ICAM-1 (intercellular cell adhesion molecules), whereas the expressions of VCAM-1 (vascular cell adhesion molecules) and E-selectin were evaluated after 6 hours of stimulation. […] To quantitatively measure the amount of cell surface expressions of ICAM-1, VCAM-1 and E-selectin, ELISA assay was performed using anti-ICAM-1 (clone BBIG-I1), anti-VCAM-1 (clone BBIG-V1), anti-E-selectin (clone BBIG-E4) antibodies, isotype control mouse IgG1 (clone 11711.11) and the secondary antibody (anti-mouse IgG-HRP antibody) which were procured from R&D Systems (Minneapolis, Minn., USA). […]

IC50 (IL-8): 3500 nM
IC50 (VCAM-1): 280 nM
Structure (SMILES): CN1CC[C@@H](c2c(O)cc(O)c3c(=O)cc(-c4ccc(C(F)(F)F)cc4Cl)oc23)[C@@H]1CO.Cl [Compound of example 3, (+)-trans-2-(2-Chloro-4-trifluoromethyl-phenyl)-5,7-dihydroxy-8-(2-hydroxymethyl-1-methyl-pyrrolidin-3-yl)-chromen-4-one hydrochloride]
